Source: patent US8993591B2, “1,2,4-triazolo[4,3-a] pyridine derivatives and their use as positive allosteric modulators of MGLUR2 receptors” (Janssen Pharmaceuticals, Inc., priority 2010, dated 2015)
Structures can show the parent of a compound that is named as a salt.

Target: T1, human mGluR2 receptor (Homo sapiens, UniProt Q14416)
T1 construct: expressed in transfected cells; host or cells: CHO cells (membranes)
Assay: [35S]GTPγS binding assay, mGluR2 positive allosteric modulation (PAM)
Assay type: biochemical
Settings: membranes from CHO cells transfected with human mGluR2, in presence of glutamate at EC20; for EC50: -log EC50 with EC50 in M, read-out: GTPγS - hmGluR2 PAM pEC50 (converted); for Emax / GTPγS - hmGluR2 PAM Emax: maximal % effect relative to the control glutamate response; for Emax: read-out: GTPγS - hmGluR2 PAM Emax
Protocol: The [^35S]GTPγS binding assay is a functional membrane-based assay used to study G-protein coupled receptor (GPCR) function whereby incorporation of a non-hydrolysable form of GTP, [^35S]GTPγS (guanosine 5′-triphosphate, labelled with […] ^35S), is measured. The G-protein α subunit catalyzes the exchange of guanosine 5′-diphosphate (GDP) by guanosine triphosphate (GTP) and on activation of the GPCR by an agonist, [^35S]GTPγS, becomes incorporated and cannot be cleaved to continue the exchange cycle (Harper (1998) Current Protocols in Pharmacology 2.6.1-10, John Wiley & Sons, Inc.). […] Here we describe the use of the [^35S]GTPγS binding assay using membranes from cells transfected with the human mGluR2 receptor and adapted from Schaffhauser et al. ((2003) Molecular Pharmacology 4:798-810) for the detection of the positive allosteric modulation (PAM) properties of the compounds of this invention.
CHO-cells were cultured to pre-confluence and stimulated with 5 mM butyrate for 24 h. Cells were then collected by scraping in PBS and cell suspension was centrifuged (10 min at 4000 RPM in benchtop centrifuge). Supernatant was discarded and pellet gently resuspended in 50 mM Tris-HCl, pH 7.4 by mixing with a vortex and pipetting up and down. The suspension was centrifuged at 16,000 RPM (Sorvall RC-5C plus rotor SS-34) for 10 minutes and the supernatant discarded. The pellet was homogenized in 5 mM Tris-HCl, pH 7.4 using an ultra-turrax homogenizer and centrifuged again (18,000 RPM, 20 min, 4° C.). The final pellet was resuspended in 50 mM Tris-HCl, pH 7.4 and stored at −80° C. in appropriate aliquots before use. Protein concentration was determined by the Bradford method (Bio-Rad, USA) with bovine serum albumin as standard.
Measurement of mGluR2 positive allosteric modulatory activity of test compounds was performed as follows. Test compounds and glutamate were diluted in assay buffer containing 10 mM HEPES acid, 10 mM HEPES salt, pH 7.4, 100 mM NaCl, 3 mM MgCl2 and 10 μM GDP. Human mGlu2 receptor-containing membranes were thawed on ice and diluted in assay buffer supplemented with 14 μg/ml saponin. Membranes were pre-incubated with compound alone or together with a predefined (˜EC20) concentration of glutamate (PAM assay) for 30 min at 30° C. After addition of [^35S]GTPγS (f.c. 0.1 nM), assay mixtures were shaken briefly and further incubated to allow [^35S]GTPγS incorporation on activation (30 minutes, 30° C.). Final assay mixtures contained 7 μg of membrane protein in 10 mM HEPES acid, 10 mM HEPES salt, pH 7.4, 100 mM NaCl, 3 mM MgCl2, 10 μM GDP and 10 μg/ml saponin. Total reaction volume was 200 μl. Reactions were terminated by rapid filtration through Unifilter-96 GF/B plates (Perkin Elmer, Mass., USA) using a 96-well filtermate universal harvester. Filters were washed 6 times with ice-cold 10 mM NaH2PO4/10 mM Na2HPO4, pH 7.4. Filters were then air-dried, and 40 μl of liquid scintillation cocktail (Microscint-O) was added to each well. Membrane-bound radioactivity was counted in a Microplate Scintillation and Luminescence Counter from Perkin Elmer.
The concentration-response curves of representative compounds of the present invention-obtained in the presence of EC20 of mGluR2 agonist glutamate to determine positive allosteric modulation (PAM)-were generated using the Lexis software interface (developed at J&J).

T1 sequence (Q14416 19-872): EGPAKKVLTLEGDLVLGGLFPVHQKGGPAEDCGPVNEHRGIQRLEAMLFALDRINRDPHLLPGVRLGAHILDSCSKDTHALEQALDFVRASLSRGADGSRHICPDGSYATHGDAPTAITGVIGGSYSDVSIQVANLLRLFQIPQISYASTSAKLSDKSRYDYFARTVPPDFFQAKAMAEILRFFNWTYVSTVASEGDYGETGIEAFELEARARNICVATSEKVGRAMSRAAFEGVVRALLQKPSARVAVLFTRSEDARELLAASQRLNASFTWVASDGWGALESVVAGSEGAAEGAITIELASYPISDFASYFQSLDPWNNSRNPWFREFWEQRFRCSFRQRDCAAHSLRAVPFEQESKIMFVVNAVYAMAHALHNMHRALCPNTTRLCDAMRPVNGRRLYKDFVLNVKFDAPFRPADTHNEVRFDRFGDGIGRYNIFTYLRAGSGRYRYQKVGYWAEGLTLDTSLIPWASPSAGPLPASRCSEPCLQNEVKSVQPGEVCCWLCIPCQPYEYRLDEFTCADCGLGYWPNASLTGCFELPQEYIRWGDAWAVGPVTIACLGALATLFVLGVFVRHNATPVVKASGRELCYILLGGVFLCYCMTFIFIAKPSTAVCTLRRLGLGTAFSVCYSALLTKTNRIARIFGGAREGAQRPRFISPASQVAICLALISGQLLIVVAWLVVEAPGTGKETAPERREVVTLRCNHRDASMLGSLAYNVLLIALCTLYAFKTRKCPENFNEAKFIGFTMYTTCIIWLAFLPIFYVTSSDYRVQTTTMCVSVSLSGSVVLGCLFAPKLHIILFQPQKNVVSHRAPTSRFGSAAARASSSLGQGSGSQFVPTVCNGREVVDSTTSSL

Row | Compound | EC50 | Emax | GTPγS - hmGluR2 PAM Emax
1 | Fc1ccc(N2CCN(Cc3ccn4c(CC5CC5)nnc4c3C(F)(F)F)C3CC32)c(F)c1 (racemic) [Compound 12, 2-[[3-(Cyclopropylmethyl)-8-(trifluoromethyl)-1,2,4-triazolo[4,3-a]pyridin-7-yl]methyl]-5-(2,4-difluorophenyl)-2,5-diazabicyclo[4.1.0]heptane (cis)] | 12.6 nM | 277% | 
2 | CC1(c2ccccc2)CN(Cc2ccn3c(CC4CC4)nnc3c2C(F)(F)F)CCN1 (single isomer, unassigned) [Compound 3a, 3-(Cyclopropylmethyl)-7-[(3-methyl-3-phenyl-1-piperazinyl)methyl]-8-(trifluoromethyl)-1,2,4-triazolo[4,3-a]pyridine (*R) hydrochloride hydrate (.2HCl.2.5H2O)] |  | 271% | 
3 | CC1(c2ccccc2)CN(Cc2ccn3c(CC4CC4)nnc3c2C(F)(F)F)CCN1 (single isomer, unassigned) [Compound 3b, 3-(cyclopropylmethyl)-7-[(3-methyl-3-phenyl-1-piperazinyl)methyl]-8-(trifluoromethyl)-1,2,4-triazolo[4,3-a]pyridine (*S) hydrochloride hydrate (.2.4HCl.2.7H2O)] | 37.2 nM | 292% | 
4 | FC(F)(F)c1c(CN2CCNC(c3ccccc3)C2)ccn2c(CC3CC3)nnc12 (single isomer, unassigned) [Compound 5a, 3-(Cyclopropylmethyl)-7-[(3-phenyl-1-piperazinyl)methyl]-8-(trifluoromethyl)-1,2,4-triazolo[4,3-a]pyridine(*R)] | 2240 nM | 270% | 
5 | FC(F)(F)c1c(CN2CCNC(c3ccccc3)C2)ccn2c(CC3CC3)nnc12 (single isomer, unassigned) [Compound 5b, 3-(cyclopropylmethyl)-7-[(3-phenyl-1-piperazinyl)methyl]-8-(trifluoromethyl)-1,2,4-triazolo[4,3-a]pyridine (*S)] | 955 nM |  | 278%
6 | Cc1nnc2c(C(F)(F)F)c(CN3CCCC(C)(c4ccccc4)C3)ccn12 (single isomer, unassigned) [Compound 10, 3-Methyl-7-[(3-methyl-3-phenyl-1-piperidinyl)methyl]-8-(trifluoromethyl)-1,2,4-triazolo[4,3-a]pyridine (*S)] |  | 193% | 
7 | Cc1nnc2c(C(F)(F)F)c(CN3CCCC(C)(c4ccccc4)C3)ccn12 (single isomer, unassigned) [Compound 11, 3-Methyl-7-[(3-methyl-3-phenyl-1-piperidinyl)methyl]-8-(trifluoromethyl)-1,2,4-triazolo[4,3-a]pyridine (*R)] | 53.7 nM | 268% | 
8 | CC1(c2ccccc2)CCN(Cc2ccn3c(CC4CC4)nnc3c2C(F)(F)F)C1 (single isomer, unassigned) [Compound 13, 3-(cyclopropylmethyl)-7-[(3-methyl-3-phenyl-1-pyrrolidinyl)methyl]-8-(trifluoromethyl)-1,2,4-triazolo[4,3-a]pyridine (*R)] | 12.6 nM |  | 248%
9 | CC1(c2ccccc2)CCN(Cc2ccn3c(CC4CC4)nnc3c2C(F)(F)F)C1 (single isomer, unassigned) [Compound 14, 3-(cyclopropylmethyl)-7-[(3-methyl-3-phenyl-1-pyrrolidinyl)methyl]-8-(trifluoromethyl)-1,2,4-triazolo[4,3-a]pyridine (*S)] | 15.1 nM |  | 286%
10 | Fc1ccc(C2CN(Cc3ccn4c(CC5CC5)nnc4c3C(F)(F)F)CCO2)c(F)c1 (single isomer, unassigned) [Compound 17, 3-(Cyclopropylmethyl)-7-{[(2*R)-2-(2,4-difluorophenyl)morpholin-4-yl]methyl}-8-(trifluoromethyl)[1,2,4]triazolo[4,3-a]pyridine] | 977 nM | 259% | 
11 | Fc1ccc(C2CN(Cc3ccn4c(CC5CC5)nnc4c3C(F)(F)F)CCO2)c(F)c1 (single isomer, unassigned) [Compound 18, 3-(Cyclopropylmethyl)-7-{[(2*S)-2-(2,4-difluorophenyl)morpholin-4-yl]methyl}-8-(trifluoromethyl)[1,2,4]triazolo[4,3-a]pyridine] | 51.3 nM |  | 242%

More lines, now with the values ahead:

Row | EC50 | Emax | GTPγS - hmGluR2 PAM Emax | Compound
12 | 447 nM |  | 208% | Fc1ccccc1C1CN(Cc2ccn3c(CC4CC4)nnc3c2C(F)(F)F)CCN1 (single isomer, unassigned) [Compound 6a, 3-(cyclopropylmethyl)-7-[[3-(2-fluorophenyl)-1-piperazinyl]methyl]-8-(trifluoromethyl)-1,2,4-triazolo[4,3-a]pyridine (*R)]
13 | 631 nM |  | 294% | Fc1ccccc1C1CN(Cc2ccn3c(CC4CC4)nnc3c2C(F)(F)F)CCN1 (single isomer, unassigned) [Compound 6b, 3-(cyclopropylmethyl)-7-[[3-(2-fluorophenyl)-1-piperazinyl]methyl]-8-(trifluoromethyl)-1,2,4-triazolo[4,3-a]pyridine (*S)]
14 |  | 199% |  | CN1CCN(Cc2ccn3c(CC4CC4)nnc3c2C(F)(F)F)CC1c1ccccc1 (single isomer, unassigned) [Compound 7a, 3-(Cyclopropylmethyl)-7-[(4-methyl-3-phenyl-1-piperazinyl)methyl]-8-(trifluoromethyl)-1,2,4-triazolo[4,3-a]pyridine (*R)]
15 | 263 nM | 198% |  | CN1CCN(Cc2ccn3c(CC4CC4)nnc3c2C(F)(F)F)CC1c1ccccc1 (single isomer, unassigned) [Compound 7b, 3-(cyclopropylmethyl)-7-[(4-methyl-3-phenyl-1-piperazinyl)methyl]-8-(trifluoromethyl)-1,2,4-triazolo[4,3-a]pyridine (*S)]
16 | 676 nM |  | 273% | CC1(c2ccccc2)CN(Cc2ccn3c(CC4CC4)nnc3c2C(F)(F)F)CCO1 (single isomer, unassigned) [Compound 8a, 3-(Cyclopropylmethyl)-7-[(2-methyl-2-phenyl-4-morpholinyl)methyl]-8-(trifluoromethyl)-1,2,4-triazolo[4,3-a]pyridine (*R) hydrochloride hydrate (.1.1HCl.1.1H2O)]
17 | 8.32 nM |  | 243% | CC1(c2ccccc2)CN(Cc2ccn3c(CC4CC4)nnc3c2C(F)(F)F)CCO1 (single isomer, unassigned) [Compound 8b, 3-(cyclopropylmethyl)-7-[(2-methyl-2-phenyl-4-morpholinyl)methyl]-8-(trifluoromethyl)-1,2,4-triazolo[4,3-a]pyridine (*S) hydrochloride hydrate (.1.3HCl.1.6H2O)]
18 | 912 nM |  | 320% | Fc1ccc(C2CN(Cc3ccn4c(CC5CC5)nnc4c3C(F)(F)F)CCN2)c(F)c1 (single isomer, unassigned) [Compound 19a, 3-(Cyclopropylmethyl)-7-{[(3*R)-3-(2,4-difluorophenyl)piperazin-1-yl]methyl}-8-(trifluoromethyl)[1,2,4]triazolo[4,3-a]pyridine]
19 | 468 nM |  | 279% | Fc1ccc(C2CN(Cc3ccn4c(CC5CC5)nnc4c3C(F)(F)F)CCN2)c(F)c1 (single isomer, unassigned) [Compound 19b, 3-(Cyclopropylmethyl)-7-{[(3*S)-3-(2,4-difluorophenyl)piperazin-1-yl]methyl}-8-(trifluoromethyl)[1,2,4]triazolo[4,3-a]pyridine]
